Assay results published in EPA's ToxRefDB 2.

Assays:
[1] = system: rat; conditions: Combined chronic toxicity/carcinogenicity, sprague dawley, Oral, Feed, dose end: 105 week, group: systemic
[2] = system: rat; conditions: Multigenerational reproductive toxicity study, Sprague-Dawley, Oral, Feed, dose end: 2 generation
[3] = system: dog; conditions: Subchronic oral toxicity in nonrodent, beagle, Gavage/Intubation, dose end: 14 week, group: systemic
[4] = system: dog; conditions: Chronic toxicity; beagle; Oral; Gavage/Intubation; dose end: 53 week; group: systemic; systemic / in life observation / clinical signs / stiffness + systemic / in life observation / clinical signs / tremors + systemic / …
[5] = system: rat; conditions: Chronic toxicity, Oral, Diet, dose end: 53 week, group: systemic
[6] = system: rat; conditions: Prenatal developmental toxicity study, sprague dawley, Oral, Gavage/Intubation, dose end: 18 GD
[7] = system: rat; conditions: Subchronic oral toxicity in rodents, sprague dawley, Feed, dose end: 13 week, group: systemic
[8] = system: mouse; conditions: Subchronic oral toxicity in rodents, cd1, Feed, dose end: 13 week, group: systemic
[9] = system: rat; conditions: Combined chronic toxicity/carcinogenicity, sprague dawley, Oral, Feed, dose end: 24 month, group: systemic
[10] = system: dog; conditions: Chronic toxicity; beagle; Oral; Feed; dose end: 52 week; group: systemic; systemic / pathology microscopic / eye / [other] + systemic / pathology microscopic / eye / cataract + systemic / pathology microscopic / …
[11] = system: dog; conditions: Subchronic oral toxicity in nonrodent, beagle, Feed, dose end: 91 day, group: systemic
[12] = system: mouse; conditions: Carcinogenicity, cd1, Oral, Feed, dose end: 18 month, group: systemic
[13] = system: rat; conditions: Multigenerational reproductive toxicity study, other, Oral, Feed, dose end: 2 generation
[14] = system: rat; conditions: Subchronic oral toxicity in rodents, other, Feed, dose end: 90 day, group: systemic
[15] = system: rat; conditions: Prenatal developmental toxicity study, wistar, Oral, Gavage/Intubation, dose end: 19 GD
[16] = system: rat; conditions: Subchronic oral toxicity in rodents, wistar, Feed, dose end: 90 day, group: systemic
[17] = system: rat; conditions: Subchronic oral toxicity in rodents, wistar, Feed, dose end: 28 day, group: systemic
[18] = system: dog; conditions: Subchronic oral toxicity in nonrodent, beagle, Capsule, dose end: 90 day, group: systemic
[19] = systemic / in life observation / body weight / body weight + systemic / in life observation / body weight / body weight gain + systemic / in…
[20] = group: maternal, systemic / in life observation / body weight / body weight gain
[21] = group: offspring, developmental / developmental malformation / limb / [other] + systemic / in life observation / clinical signs / tremors
[22] = group: parental, systemic / pathology microscopic / brain / degeneration + systemic / pathology microscopic / spinal cord / degeneration + systemic / in life…
[23] = group: reproductive, reproductive / reproductive performance / fertility / fertility
[24] = systemic / pathology microscopic / brain / degeneration + systemic / pathology microscopic / skeletal muscle / atrophy + systemic / in life …
[25] = systemic / pathology microscopic / brain / degeneration + systemic / pathology microscopic / skeletal muscle / atrophy + systemic / …
[26] = systemic / in life observation / clinical signs / locomotion + systemic / in life observation / clinical signs / motor activity + systemic…
[27] = group: developmental, developmental / developmental malformation / bone / full supernumerary + developmental / developmental malformation / bone / incomplete …
[28] = group: maternal, systemic / in life observation / body weight / body weight gain + systemic / in life observation / clinical signs / convulsions + systemic…
[29] = systemic / in life observation / body weight / body weight + systemic / in life observation / clinical signs / emaciation + systemic / in …
[30] = systemic / hematology / platelet / platelet
[31] = systemic / hematology / anemia / anemia - hemolytic + systemic / in life observation / body weight / body weight gain + systemic / …
[32] = systemic / hematology / anemia / anemia - nos + systemic / hematology / erythrocyte (rbc) count differential / erythrocyte (rbc) + systemic…
[33] = systemic / pathology microscopic / liver / fatty change + systemic / pathology microscopic / liver / necrosis + systemic / pathology …
[34] = group: offspring, systemic / in life observation / body weight / litter weight + developmental / offspring survival late / viability index / viability index
[35] = group: parental, systemic / clinical chemistry / alanine aminotransferase (alt/sgpt) / alanine aminotransferase (alt/sgpt)
[36] = group: parental, systemic / clinical chemistry / sorbitol dehydrogenase / sorbitol dehydrogenase + systemic / clinical chemistry / alanine aminotransferase (…
[37] = systemic / clinical chemistry / globulins / globulins
[38] = systemic / hematology / erythrocyte (rbc) count differential / erythrocyte (rbc) + systemic / hematology / hemoglobin (hgb) / hemoglobin (…
[39] = group: developmental, developmental / developmental malformation / bone / full supernumerary
[40] = group: maternal, systemic / organ weight / liver / absolute + systemic / pathology microscopic / kidney / vacuolization + systemic / pathology microscopic / …
[41] = systemic / pathology microscopic / kidney / hyaline droplet
[42] = systemic / pathology microscopic / kidney / hyaline droplet + systemic / clinical chemistry / alanine aminotransferase (alt/sgpt) / alanine …
[43] = systemic / clinical chemistry / calcium / calcium + systemic / clinical chemistry / phosphorus / phosphorus + systemic / pathology …
[44] = systemic / clinical chemistry / protein / protein + systemic / in life observation / clinical signs / vomiting + systemic / organ weight / …

## CC[C@H](C)[C@H]1O[C@]2(C=C[C@@H]1C)C[C@@H]1C[C@@H](C/C=C(\C)[C@@H](O[C@H]3C[C@H](OC)[C@@H](O[C@H]4C[C@H](OC)[C@@H](NC)[C@H](C)O4)[C@H](C)O3)[C@@H](C)/C=C/C=C3\CO[C@@H]4[C@H](O)C(C)=C[C@@H](C(=O)O1)[C@]34O)O2.O=C(O)c1ccccc1 [Emamectin benzoate]
[1]; systemic / clinical chemistry / triglycerides / triglycerides + systemic / in life observation / body weight / body weight + systemic / …
  NEL: 0.25 mg/kg/day
[1]; [19]
  LOAEL: 2.51 mg/kg/day
  NOAEL: 1.01 mg/kg/day
[1]; systemic / pathology microscopic / skin / fibroma + systemic / pathology gross / skin / nodule(s) + systemic / clinical chemistry / …
  LEL: 1.01 mg/kg/day
[2]; [20]
  LEL: 1.8 mg/kg/day
  LOAEL: 1.8 mg/kg/day
  NEL: 0.6 mg/kg/day
  NOAEL: 0.6 mg/kg/day
[2]; [21]
  LOAEL: 1.8 mg/kg/day
  NEL: 0.6 mg/kg/day
  NOAEL: 0.6 mg/kg/day
[2]; group: offspring, developmental / developmental malformation / limb / [other] + systemic / in life observation / clinical signs / tremors + systemic / in life…
  LEL: 1.8 mg/kg/day
[2]; group: parental, systemic / pathology microscopic / brain / degeneration + systemic / pathology microscopic / spinal cord / degeneration
  LOAEL: 3.6 mg/kg/day
[2]; [22]
  LEL: 3.6 mg/kg/day
  NEL: 1.8 mg/kg/day
  NOAEL: 1.8 mg/kg/day
[2]; [23]
  LEL: 3.6 mg/kg/day
  LOAEL: 3.6 mg/kg/day
  NEL: 1.8 mg/kg/day
  NOAEL: 1.8 mg/kg/day
[3]; [24]
  NEL: 0.25 mg/kg/day
  NOAEL: 0.25 mg/kg/day
[3]; [25]
  LEL: 0.5 mg/kg/day
  LOAEL: 0.5 mg/kg/day
[4]
  LEL: 0.5 mg/kg/day
  LOAEL: 0.5 mg/kg/day
  NEL: 0.25 mg/kg/day
  NOAEL: 0.25 mg/kg/day
[5]; systemic / in life observation / body weight / body weight + systemic / in life observation / clinical signs / fur (altered appearance) + …
  NEL: 1 mg/kg/day
[5]; [26]
  LEL: 2.5 mg/kg/day
  LOAEL: 2.5 mg/kg/day
  NOAEL: 1 mg/kg/day
[6]; [27]
  LEL: 8 mg/kg/day
  LOAEL: 8 mg/kg/day
  NEL: 4 mg/kg/day
  NOAEL: 4 mg/kg/day
[6]; [20]
  LEL: 4 mg/kg/day
  LOAEL: 4 mg/kg/day
[6]; [28]
  NEL: 2 mg/kg/day
  NOAEL: 2 mg/kg/day
[7]; [29]
  LOAEL: 6.7 mg/kg/day
  NOAEL: 2.5 mg/kg/day
[7]; systemic / pathology microscopic / eye / vacuolization
  LEL: 2.5 mg/kg/day
[7]; systemic / pathology microscopic / eye / vacuolization + systemic / in life observation / body weight / body weight + systemic / in life …
  NEL: 0.5 mg/kg/day

## CC1(c2ccc(Oc3ccccc3)cc2)OC(=O)N(Nc2ccccc2)C1=O (stereo unspecified) [Famoxadone]
[8]; [30]
  LEL: 5.89 mg/kg/day
  NEL: < 5.89 mg/kg/day
[8]; systemic / organ weight / liver / absolute + systemic / organ weight / liver / relative to body weight + systemic / clinical chemistry / …
  NOAEL: 62.4 mg/kg/day
[8]; systemic / organ weight / liver / absolute + systemic / organ weight / liver / relative to body weight + systemic / hematology / anemia / …
  LOAEL: 534 mg/kg/day
[9]; systemic / hematology / anemia / anemia - hemolytic + systemic / in life observation / body weight / body weight gain
  LOAEL: 10.7 mg/kg/day
[9]; [31]
  LEL: 10.7 mg/kg/day
  NEL: 2.15 mg/kg/day
  NOAEL: 2.15 mg/kg/day
[10]
  LEL: 8.8 mg/kg/day
  LOAEL: 8.8 mg/kg/day
  NEL: 1.2 mg/kg/day
  NOAEL: 1.2 mg/kg/day
[11]; [32]
  LEL: 1.4 mg/kg/day
  NEL: < 1.4 mg/kg/day
[11]; systemic / pathology microscopic / eye / cataract + systemic / pathology microscopic / eye / cataract, cortical
  LOAEL: 10 mg/kg/day
[11]; systemic / pathology microscopic / eye / cataract + systemic / pathology microscopic / eye / cataract, cortical + systemic / clinical …
  NOAEL: 1.3 mg/kg/day
[12]; systemic / organ weight / liver / absolute + systemic / organ weight / liver / relative to body weight
  LEL: 95.6 mg/kg/day
[12]; [33]
  LOAEL: 274 mg/kg/day
  NEL: 6.78 mg/kg/day
  NOAEL: 95.6 mg/kg/day
[13]; group: offspring, systemic / in life observation / body weight / litter weight
  LOAEL: 53.3 mg/kg/day
[13]; [34]
  LEL: 53.3 mg/kg/day
  NEL: 14.2 mg/kg/day
  NOAEL: 14.2 mg/kg/day
[13]; [35]
  LEL: 1.45 mg/kg/day
  NEL: < 1.45 mg/kg/day
[13]; [36]
  LOAEL: 44.7 mg/kg/day
  NOAEL: 11.3 mg/kg/day
[14]; [37]
  LEL: 3.34 mg/kg/day
  NEL: < 3.34 mg/kg/day
[14]; [38]
  LOAEL: 13 mg/kg/day
  NOAEL: 3.34 mg/kg/day

## N#CCNC(=O)c1cnccc1C(F)(F)F [Flonicamid]
[15]; [39]
  LEL: 500 mg/kg/day
  LOAEL: 500 mg/kg/day
  NEL: 100 mg/kg/day
  NOAEL: 100 mg/kg/day
[15]; [40]
  LEL: 500 mg/kg/day
  LOAEL: 500 mg/kg/day
  NEL: 100 mg/kg/day
  NOAEL: 100 mg/kg/day
[16]; [41]
  LEL: 12.1 mg/kg/day
  LOAEL: 60 mg/kg/day
[16]; [42]
  NEL: 3.08 mg/kg/day
  NOAEL: 12.1 mg/kg/day
[17]; [43]
  LEL: 7.47 mg/kg/day
  NEL: 3.61 mg/kg/day
  NOAEL: 7.47 mg/kg/day
[17]; [41]
  LOAEL: 36.5 mg/kg/day
[18]; [44]
  LEL: 20 mg/kg/day
  LOAEL: 20 mg/kg/day
  NOAEL: 8 mg/kg/day
[18]; systemic / in life observation / clinical signs / ataxia + systemic / in life observation / clinical signs / defecation (diarrhea) + …
  NEL: 8 mg/kg/day
